The text below walks through data of PMC8510480, “Searching Anti-Zika Virus Activity in 1H-1,2,3-Triazole Based Compounds” (Molecules, 2021).

Series [1] can be described thus: Cytotoxicity test with MTT method in Vero cells. The class given is cell-based, African green monkey. As to conditions: African green monkey, 5 days, read-out: CC50 (50% cytotoxic concentration). Here is the method: (§1) The cytotoxicity of compounds 1–7 to Vero cells, an epithelial cell line derived from the kidney of an African green monkey, was tested using the 3-(4,5-dimethylthiazol-2-yl)-2,5-diphenyltetrazolium bromide (MTT) method. […] Based on CC20 values, which was the maximum concentration used for antiviral screening, 3b compound was the least toxic with a value of 527.2 µM. Compounds 2a and 2b were the most cytotoxic with values of 8.87 µM and 9.89 µM, respectively. […] The results from compounds 3a, 3b and 4a, 4b ranged from 40.69 to 527.20 µM. […] The presence of phthalimide group or sugar increases the values of CC20 and CC50 (Table 2 and Supplementary Material: Figure S1).
(§2) 96-well plates with 1 × 10^4 cell/well were used in this assay and prepared 24 h previously. The compounds were diluted in a 2:1 ratio so that a maximum of 0.8% DMSO was used. The concentrations used were 800, 400, 200, 100, 50, 25 and 12.5 µM. Dilutions were added to the wells in triplicate and incubated at 37 °C and 5% CO2 atmosphere. After 5 days, the wells were emptied and a 50 µL of 1 mg/mL MTT (3-(4,5-dimethylthiazol-2-yl)-2,5-diphenyltetrazolium bromide) (Sigma-Aldrich) solution was added, and the cells were incubated for 3–4 h for formation of formazan crystals through the mitochondria of viable cells. Then, medium was removed and 100 µL DMSO was added to the wells to solubilize the formazan crystals. With the aid of an incubator Tecnal TE-420 (Tecnal Equipamentos Científicos, Piracicaba, São Paulo, Brazil), the plates were homogenized at 120 RPM at 37 °C and the optical densities were read at 570 nm on a spectrophotometer BioTekTM ELx800TM (BioTek Instruments, Winooski, VT, USA).
(§3) The determination of the CC20 and CC50 values was obtained through the linear regression analysis of the XY graph generated by the values of the concentrations used in the test and the triplicate values of the viability. In the post-infection and pre-treatment tests, ANOVA and Dunnett tests were used, considering […] as the minimum significance value. All tests were performed in GraphPad Prism v.6.0 program (GraphPad Software, Inc., San Diego, CA, USA).
On the technique in general: Tetrazolium assays rely on reduction of a dye to a coloured formazan, in cell work by metabolically active cells.

The subject of series [2] is Vero cells. Briefly: Cytotoxicity test with MTT method in Vero cells. The conditions noted are these: 5 days. The class given is cell-based, African green monkey. The protocol: as §1, §2, §3
Series [3] relates to ZIKV. Briefly: Pre-treatment test to ZIKV in Vero cells. The class given is cell-based, Zika virus. The conditions noted are these: 1 h pre-treatment at 136.90, 68.45, 34.22 and 17.11 µM, then ZIKV MOI 0.1, 5 days. The protocol: Since compound 4b was the only one in the series with activity against ZIKV, further experiments were conducted to elucidate its mechanism of action in cells that were pre-treated. To this, cells were pre-treated with varying concentrations of compound 4b, washed, and then infected with ZIKV. The concentrations used were chosen with the aim to preserve cellular viability and, thus, the maximum concentration was the previously determined CC20 value (136.90, 68.45, 34.22 and 17.11 µM).
Figure 5 Graphic result for compound 4b in the pre-treatment test to ZIKV. Vero cells in a 48-well cell plate were treated with 4b in different concentrations and after 1 h the supernatant was discarded. Cells were washed with PBS 1X, ZIKV MOI 0.1 was inoculated, and the plate was incubated again. After five days, the supernatant was collected and titrated by TCID50 method. The experiment was conducted in triplicates and values are the mean and the SD. […]
96-well plates with 1 × 10^4 cell/well were used in this assay and prepared 24 h previously. […] The reading was performed in an inverted optical microscope AE2000, Motic (Motic, Kowloon Bay, Hong Kong) counting positives wells by the presence of cytopathic effect and the determination of the sample title was performed with the aid of the Microsoft Office Excel program (Microsoft® Office, Redmond, WA, USA). […]

Take `O=C1C(Br)=C(NCc2cn(CN3C(=O)c4ccccc4C3=O)nn2)C(=O)c2ccccc21` [Compound 4b]: the CC50 at 5 days in series [1] is 330 µM. Further, the “CC20 (20% cytotoxic concentration)” value in series [2] was 136.90 µM. For the same compound, the “change in virus titers vs negative control” value in series [3] is “no significant change in virus titers”.
